Data as given in PubChem BioAssay AID208 (DTP/NCI, 2004).
“And” between values parts separate entries of the source, which are not always exact repeats. Identical values can stand only once. Results filed as inconclusive are left out.

Tested on: HT29 intrarenal xenograft, nude mice, tumor weight change
Assay: NCI In Vivo Anticancer Drug Screen. Data for tumor model HT29;CX-1 Human Adenocarcinoma (MER+) (intrarenal inoculation) in NU/NU BALB/C (nude) mice
Details: endpoint: mean tumor weight change, higher = larger tumour
Protocol: The antitumor activity of compounds was measured in mice bearing transplantable tumors. Survival or tumor size were measured and the results are expressed as the measurement made in the treated group (T) divided by the measurement made in the vehicle treated control group (C). The tumor model used in this assay is HT29;CX-1 Human Adenocarcinoma (MER+) (intrarenal inoculation) in NU/NU BALB/C (nude) mice

[1] = dose: 100.0 mg/kg/injection, schedule: Q01DX010 (sc), vehicle: saline
[2] = dose: 200.0 mg/kg/injection, schedule: Q01DX010 (sc), vehicle: saline
[3] = dose: 150.0 mg/kg/injection, schedule: Q04DX004 (sc), vehicle: saline
[4] = dose: 300.0 mg/kg/injection, schedule: Q04DX004 (sc), vehicle: saline
[5] = dose: 600.0 mg/kg/injection, schedule: Q04DX004 (sc), vehicle: saline
[6] = dose: 300.0 mg/kg/injection, schedule: Q04DX004 (sc), vehicle: saline with Tween-80
[7] = dose: 600.0 mg/kg/injection, schedule: Q04DX004 (sc), vehicle: saline with Tween-80
[8] = dose: 2400.0 mg/kg/injection, schedule: Q04DX004 (sc), vehicle: saline with Tween-80
[9] = dose: 150.0 mg/kg/injection, schedule: Q04DX004 (sc), vehicle: saline with Tween-80
[10] = dose: 1200.0 mg/kg/injection, schedule: Q04DX004 (sc), vehicle: saline with Tween-80

CCCNC1=C(C)C(=O)C2=C(C1=O)[C@H](COC(N)=O)[C@]1(OC)[C@@H]3N[C@@H]3CN21
T/C (dose: 1.5 mg/kg/injection, schedule: Q04DX004 (sc), vehicle: saline): 26 % of control
T/C (dose: 3.0 mg/kg/injection, schedule: Q04DX004 (sc), vehicle: saline): 91 % of control
T/C (dose: 6.0 mg/kg/injection, schedule: Q04DX004 (sc), vehicle: saline): 87 % of control and 91 % of control
T/C (dose: 12.0 mg/kg/injection, schedule: Q04DX004 (sc), vehicle: saline): 5 % of control and 26 % of control

[N-]=[N+]=[N-]
T/C (dose: 1.5 mg/kg/injection, schedule: Q04DX004 (ip), vehicle: water): 79 % of control
T/C (dose: 3.0 mg/kg/injection, schedule: Q04DX004 (ip), vehicle: water): 90 % of control
T/C (dose: 6.0 mg/kg/injection, schedule: Q04DX004 (ip), vehicle: water): 59 % of control
T/C (dose: 12.0 mg/kg/injection, schedule: Q04DX004 (ip), vehicle: water): 62 % of control

C[N+](C)(C)c1ncnc2nc[nH]c12
T/C (dose: 50.0 mg/kg/injection, schedule: Q01DX010 (sc), vehicle: saline): 111 % of control
T/C [1]: 83 % of control
T/C [2]: 29 % of control

O=C1CCC(=O)N1CO
T/C [3]: 66 % of control
T/C [4]: 80 % of control
T/C [5]: 74 % of control

CCOC(=O)c1ccc(NC(=O)Nc2nncs2)cc1
T/C (dose: 100.0 mg/kg/injection, schedule: Q01DX010 (sc), vehicle: distilled water + Tween-80): 52 % of control
T/C (dose: 200.0 mg/kg/injection, schedule: Q01DX010 (sc), vehicle: distilled water + Tween-80): 69 % of control
T/C (dose: 800.0 mg/kg/injection, schedule: Q01DX010 (sc), vehicle: distilled water + Tween-80): 84 % of control

NC(CNC(=O)CBr)C(=O)O (stereo not drawn)
T/C (dose: 37.5 mg/kg/injection, schedule: Q04DX004 (sc), vehicle: water): 106 % of control
T/C (dose: 75.0 mg/kg/injection, schedule: Q04DX004 (sc), vehicle: water): 96 % of control
T/C (dose: 150.0 mg/kg/injection, schedule: Q04DX004 (sc), vehicle: water): 43 % of control

NC(Cc1ccc(N(CCCl)CCCl)cc1)C(=O)O (stereo not drawn)
T/C (dose: 5.0 mg/kg/injection, schedule: Q04DX004 (sc), vehicle: saline): 46 % of control
T/C (dose: 10.0 mg/kg/injection, schedule: Q04DX004 (sc), vehicle: saline): 106 % of control
T/C (dose: 20.0 mg/kg/injection, schedule: Q04DX004 (sc), vehicle: saline): 47 % of control

C[C@@H]1C[C@@H]([C@H](O)CC2CC(=O)NC(=O)C2)C(=O)[C@@H](C)C1
T/C (dose: 75.0 mg/kg/injection, schedule: Q04DX004 (sc), vehicle: saline): 43 % of control

CN(C)CCC(=O)C(=Cc1ccc(O)cc1)C(=O)CCN(C)C
T/C (dose: 75.0 mg/kg/injection, schedule: Q04DX004 (ip), vehicle: saline): 66 % of control
T/C (dose: 150.0 mg/kg/injection, schedule: Q04DX004 (ip), vehicle: saline): 100 % of control

N#CC(OC1OC(COC2OC(CO)C(O)C(O)C2O)C(O)C(O)C1O)c1ccccc1 (stereo not drawn)
T/C [4]: 95 % of control
T/C [5]: 96 % of control
T/C (dose: 1200.0 mg/kg/injection, schedule: Q04DX004 (sc), vehicle: saline): 88 % of control
T/C (dose: 2400.0 mg/kg/injection, schedule: Q04DX004 (sc), vehicle: saline): 94 % of control

Nc1nc(-c2ccccc2)c(Br)c(=O)[nH]1
T/C [6]: 124 % of control
T/C [7]: 117 % of control
T/C [8]: 102 % of control

C(CSC1=NCCN1)CSC1=NCCN1
T/C (dose: 25.0 mg/kg/injection, schedule: Q01DX010 (sc), vehicle: saline): 78 % of control
T/C [1]: 66 % of control
T/C [2]: 46 % of control

Nc1nc2c(ncn2C2OC(CO)C(O)C2O)c(=O)[nH]1 (stereo not drawn)
T/C (dose: 225.0 mg/kg/injection, schedule: Q04DX004 (sc), vehicle: saline with Tween-80): 84 % of control
T/C (dose: 450.0 mg/kg/injection, schedule: Q04DX004 (sc), vehicle: saline with Tween-80): 96 % of control
T/C (dose: 900.0 mg/kg/injection, schedule: Q04DX004 (sc), vehicle: saline with Tween-80): 55 % of control
T/C (dose: 1800.0 mg/kg/injection, schedule: Q04DX004 (sc), vehicle: saline with Tween-80): 100 % of control

O=C(CN1CCOCC1)Nc1nc(-c2ccc(Cl)cc2)cs1
T/C (dose: 50.0 mg/kg/injection, schedule: Q04DX004 (ip), vehicle: saline with Tween-80): 60 % of control
T/C (dose: 100.0 mg/kg/injection, schedule: Q04DX004 (ip), vehicle: saline with Tween-80): 76 % of control
T/C (dose: 200.0 mg/kg/injection, schedule: Q04DX004 (ip), vehicle: saline with Tween-80): 73 % of control
T/C (dose: 400.0 mg/kg/injection, schedule: Q04DX004 (ip), vehicle: saline with Tween-80): 101 % of control
T/C (dose: 800.0 mg/kg/injection, schedule: Q04DX004 (ip), vehicle: saline with Tween-80): 94 % of control

CN(C)N=Nc1cccc(C(N)=O)c1
T/C (dose: 25.0 mg/kg/injection, schedule: Q04DX004 (sc), vehicle: Klucel (hydroxypropylcellulose) (HPC)): 91 % of control
T/C (dose: 50.0 mg/kg/injection, schedule: Q04DX004 (sc), vehicle: Klucel (hydroxypropylcellulose) (HPC)): 85 % of control
T/C (dose: 100.0 mg/kg/injection, schedule: Q04DX004 (sc), vehicle: Klucel (hydroxypropylcellulose) (HPC)): 123 % of control

CC(=O)OC(C)C1C2=C(C(=O)CC1(C)O)C(=O)c1c(ccc(-c3ccc4c(c3O)C(=O)C3=C(C4=O)C(C(C)OC(C)=O)C(C)(O)CC3=O)c1O)C2=O (stereo not drawn)
T/C (dose: 0.94 mg/kg/injection, schedule: Q04DX004 (ip), vehicle: saline with Tween-80): 94 % of control
T/C (dose: 1.9 mg/kg/injection, schedule: Q04DX004 (ip), vehicle: saline with Tween-80): 92 % of control
T/C (dose: 3.75 mg/kg/injection, schedule: Q04DX004 (ip), vehicle: saline with Tween-80): 88 % of control
T/C (dose: 7.5 mg/kg/injection, schedule: Q04DX004 (ip), vehicle: saline with Tween-80): 101 % of control
T/C (dose: 30.0 mg/kg/injection, schedule: Q04DX004 (ip), vehicle: saline with Tween-80): 162 % of control

O=[N+]([O-])c1ccc(N2CCOCC2)c2c1no[n+]2[O-]
T/C (dose: 75.0 mg/kg/injection, schedule: Q04DX004 (sc), vehicle: saline with Tween-80): 88 % of control
T/C [9]: 116 % of control
T/C [6]: 156 % of control
T/C [7]: 83 % of control

C=C(C)C(=O)O[C@H]1CC2=C[C@@H](C[C@@]3(C)O[C@@H]3[C@H]3OC(=O)C(=C)[C@@H]31)OC2=O
T/C (dose: 75.0 mg/kg/injection, schedule: Q04DX004 (sc), vehicle: Klucel (hydroxypropylcellulose) (HPC)): 75 % of control
T/C (dose: 150.0 mg/kg/injection, schedule: Q04DX004 (sc), vehicle: Klucel (hydroxypropylcellulose) (HPC)): 121 % of control

NCCCNCCSP(=O)(O)O
T/C (dose: 200.0 mg/kg/injection, schedule: Q04DX004 (sc), vehicle: saline): 102 % of control

CCC1OCC(C(Cl)CCl)O1 (stereo not drawn)
T/C (dose: 177.0 mg/kg/injection, schedule: Q01DX014 (sc), vehicle: other): 57 % of control and 75 % of control
T/C (dose: 267.0 mg/kg/injection, schedule: Q01DX014 (sc), vehicle: other): 85 % of control
T/C (dose: 600.0 mg/kg/injection, schedule: Q01DX014 (sc), vehicle: other): 61 % of control
T/C (dose: 900.0 mg/kg/injection, schedule: Q01DX014 (sc), vehicle: Klucel (hydroxypropylcellulose) (HPC)): 10 % of control

CC[C@](O)(C(=O)O)c1cc2n(c(=O)c1CO)Cc1cc3ccccc3nc1-2
T/C (dose: 31.25 mg/kg/injection, schedule: Q04DX004 (sc), vehicle: saline): 39 % of control

COc1cc(C(C)(C)C)cc(OC)c1C(O)(c1c(OC)cc(C(C)(C)C)cc1OC)c1c(OC)cc(C(C)(C)C)cc1OC
T/C (dose: 50.0 mg/kg/injection, schedule: Q04DX004 (sc), vehicle: saline with Tween-80): 51 % of control
T/C (dose: 100.0 mg/kg/injection, schedule: Q04DX004 (sc), vehicle: saline with Tween-80): 79 % of control
T/C (dose: 200.0 mg/kg/injection, schedule: Q04DX004 (sc), vehicle: saline with Tween-80): 63 % of control
T/C (dose: 400.0 mg/kg/injection, schedule: Q04DX004 (sc), vehicle: saline with Tween-80): 68 % of control
T/C [7]: 102 % of control
T/C [10]: 80 % of control
T/C [8]: 61 % of control

CN(N=O)C(=O)N[C@@H](C=O)[C@@H](O)[C@H](O)[C@H](O)CO
T/C [3]: 111 % of control
T/C [4]: 38 % of control

COC1(OC)C2C=CC1CC2
T/C [9]: 114 % of control
T/C [6]: 72 % of control
T/C [7]: 123 % of control
T/C [10]: 197 % of control
